Columns and labels:
[1] = system: cupgrass, woolly; assay: Test C preemergence; format: in vivo, Eriochloa villosa; conditions: for Plant response rating (scale of 0 to 100), Cupgrass, Woolly: Preemergence, 250 g ai/ha; for Cupgrass, Woolly plant response rating / Plant response rating, Cupgrass, Woolly: preemergence; for Plant response rating, Cupgrass, Woolly: 62 g ai/ha, scale 0 to 100, 0 = no effect, 100 = complete control
Excerpt: Seeds of plant species selected from blackgrass (Alopecurus myosuroides), ryegrass, Italian (Italian ryegrass, Lolium multiflorum), wheat (winter wheat, Triticum aestivum), galium (catchweed bedstraw, Galium aparine), corn (Zea mays), crabgrass, large (large crabgrass, Digitaria sanguinalis), foxtail, giant (giant foxtail, Setaria faberii), johnsongrass (Sorghum halepense), lambsquarters (Chenopodium album), morningglory (Ipomoea coccinea), nutsedge, yellow (yellow nutsedge, Cyperus esculentus), pigweed (redroot pigweed, Amaranthus retroflexus), ragweed (common ragweed, Ambrosia elation), soybean (Glycine max), barnyardgrass (Echinochloa crus-galli), oilseed rape (Brassica napus), waterhemp (common waterhemp, Amaranthus rudis), oat, wild (wild oat, Avena fatua), kochia (Kochia scoparia), Surinam grass (Brachiaria decumbens), foxtail, green (green foxtail, Setaria viridis), goosegrass (Eleusine indica), bromegrass, downy (downy bromegrass, Bromus tectorum), nightshade (eastern black nightshade, Solanum ptycanthum), cocklebur (common cocklebur, Xanthium strumarium), cupgrass, woolly (woolly cupgrass, Eriochloa villosa), bermudagrass (Cynodon dactylon), sunflower, (common oilseed sunflower, Helianthus annuus), Russian thistle (Salsola kali), and velvetleaf (Abutilon theophrasti) were planted into a blend of loam soil and sand and treated preemergence with test chemicals formulated in a non-phytotoxic solvent mixture which included a surfactant.
At the same time, plants selected from these crop and weed species and also chickweed (common chickweed, Stellaria media), canarygrass (littleseed canarygrass, Phalaris minor), and deadnettle (henbit deadnettle, Lamium amplexicaule), were planted in pots containing Redi-Earth® planting medium (Scotts Company, 14111 Scottslawn Road, Marysville, Ohio 43041) comprising spaghnum peat moss, vermiculite, wetting agent and starter nutrients and treated with postemergence applications of test chemicals formulated in the same manner. Plants ranged in height from 2 to 18 cm (1- to 4-leaf stage) for postemergence treatments. Treated plants and controls were maintained in a greenhouse for 13 to 15 days, after which time all species were compared to controls and visually evaluated. Plant response ratings, summarized in Table C, are based on a scale of 0 to 100 where 0 is no effect and 100 is complete control. A dash (-) response means no test result.

[2] = system: Russian thistle; assay: Test D postemergence; format: in vivo, Salsola kali; conditions: scale 0 to 100; for Plant response rating, Russian Thistle: 16 g ai/ha
Excerpt: Seeds of plant species selected from bluegrass (annual bluegrass, Poa annua), blackgrass (Alopecurus myosuroides), canarygrass (littleseed canarygrass, Phalaris minor), chickweed (common chickweed, Stellaria media), galium (catchweed bedstraw, Galium aparine), bromegrass, downy (downy bromegrass, Bromus tectorum), field poppy (Papaver rhoeas), field violet (Viola arvensis), foxtail, green (green foxtail, Setaria viridis), deadnettle (henbit deadnettle, Lamium amplexicaule), ryegrass, Italian (Italian ryegrass, Lolium multiflorum), kochia (Kochia scoparia), lambsquarters (Chenopodium album), oilseed rape (Brassica napus), pigweed (redroot pigweed, Amaranthus retroflexus), chamomile (scentless chamomile, Matricaria inodora), speedwell (bird's-eye speedwell, Veronica persica), barley, spring (spring barley, Hordeum vulgare), wheat, spring (spring wheat, Triticum aestivum), buckwheat, wild (wild buckwheat, Polygonum convolvulus), mustard, wild (wild mustard, Sinapis arvensis), oat, wild (wild oat, Avena fatua), radish, wild (wild radish, Raphanus raphanistrum), windgrass (Apera spica-venti), Russian thistle (Salsola kali), barley, winter (winter barley, Hordeum vulgare), and wheat, winter (winter wheat, Triticum aestivum) were planted into a silt loam soil and treated preemergence with test chemicals formulated in a non-phytotoxic solvent mixture which included a surfactant.
At the same time, these species were planted in pots containing Redi-Earth® planting medium (Scotts Company, 14111 Scottslawn Road, Marysville, Ohio 43041) comprising spaghnum peat moss, vermiculite, wetting agent and starter nutrients and treated with postemergence applications of the test chemicals formulated in the same manner. Plants ranged in height from 2 to 18 cm (1- to 4-leaf stage). Treated plants and controls were maintained in a controlled growth environment for 14 to 21 days after which time all species were compared to controls and visually evaluated. Plant response ratings, summarized in Table D, are based on a scale of 0 to 100 where 0 is no effect and 100 is complete control. A dash (-) response means no test result.

[3] = system: field bindweed; assay: Test F preemergence; format: in vivo, Convolvulus arvensis
Excerpt: Seeds of plant species selected from corn (Zea mays), soybean (Glycine max), velvetleaf (Abutilon theophrasti), lambsquarters (Chenopodium album), wild poinsettia (Euphorbia heterophylla), pigweed, palmer (palmer pigweed, Amaranthus palmeri), common waterhemp (Amaranthus rudis), surinam grass (Brachiaria decumbens), large crabgrass (Digitaria sanguinalis), crabgrass, Brazil (Brazilian crabgrass, Digitaria horizontalis), fall panicum (Panicum dichotomiflorum), giant foxtail (Setaria faberii), green foxtail (Setaria viridis), goosegrass (Eleusine indica), johnsongrass (Sorghum halepense), common ragweed (Ambrosia elation), barnyardgrass (Echinochloa crus-galli), southern sandbur (Cenchrus echinatus), arrowleaf sida (Sida rhombifolia), Italian ryegrass (Lolium multiflorum), dayflower, VA (Virginia (VA) dayflower, Commelina virginica), field bindweed (Convolvulus arvensis), cocklebur (common cocklebur, Xanthium strumarium), morningglory (Ipomoea coccinea), nightshade (eastern black nightshade, Solanum ptycanthum), kochia (Kochia scoparia), yellow nutsedge (Cyperus esculentus), and hairy beggarticks (Bidens pilosa), were planted into a silt loam soil and treated preemergence with test chemicals formulated in a non-phytotoxic solvent mixture which included a surfactant.
At the same time, plants from these crop and weed species and also horseweed (Canada horseweed, Conyza canadensis), smartweed (ladysthumb smartweed, Polygonum persicaria), waterhemp_RES1, (ALS & Triazine resistant common waterhemp, Amaranthus rudis), and waterhemp_RES2, (ALS & HPPD resistant common waterhemp, Amaranthus rudis) were treated with postemergence applications of test chemicals formulated in the same manner. Plants ranged in height from 2 to 18 cm for postemergence treatments (1- to 4-leaf stage). Treated plants and controls were maintained in a greenhouse for 14 to 21 days, after which time all species were compared to controls and visually evaluated. Plant response ratings, summarized in Table F, are based on a scale of 0 to 100 where 0 is no effect and 100 is complete control. A dash (-) response means no test result.

[4] = 31 g ai/ha, scale 0 to 100 (0 no effect, 100 complete control), 13 to 15 days
[5] = 125 g ai/ha, scale 0 to 100, 0 is no effect, 100 is complete control
[6] = Preemergence, 62 g ai/ha, scale 0 to 100
[7] = Preemergence, 125 g ai/ha, scale 0 to 100
[8] = preemergence, 16 g ai/ha, scale 0 to 100, 100 is complete control
[9] = Preemergence, 250 g ai/ha, scale 0 to 100

SMILES | Plant response rating (scale of 0 to 100), Cupgrass, Woolly [1] | Cupgrass, Woolly plant response rating [1, 4] | Cupgrass, Woolly plant response rating [1, 5] | Plant response rating, Russian Thistle ([2]; Postemergence) | Russian Thistle plant response rating ([2]; Postemergence, 31 g ai/ha) | Russian Thistle plant response rating ([2]; Postemergence, 125 g ai/ha) | Russian Thistle plant response rating ([2]; postemergence, 62 g ai/ha) | Plant response rating, Field Bindweed [3, 6] | Plant response rating, Field Bindweed [3, 7] | other results
CCc1cc(C(=O)NOC(C)C)nn1Cc1cccc(OC(F)(F)F)c1 [Compound 70] | 90 | 40 | 85 | 0 | 80 | 85 | 80 |  |  | Plant response rating, Cupgrass, Woolly ([1]; 13 to 15 days): 65; Russian Thistle plant response rating ([2]; Postemergence, 250 g ai/ha): 90
CCONC(=O)c1cc(CC)n(Cc2cccc(OC(F)(F)F)c2)n1 [Compound 72] | 65 | 10 | 45 |  |  |  |  |  |  | Plant response rating, Cupgrass, Woolly ([1]; 13 to 15 days): 45
Cc1cc(C(=O)NCC(F)(F)F)nn1Cc1ccnc(C(F)(F)F)c1 [Compound 74] | 98 | 65 | 98 | 0 | 0 | 60 | 0 |  |  | 
CCc1cc(C(=O)NC2CC2)nn1Cc1ccnc(C(F)(F)F)c1 [Compound 76] |  |  |  | 5 | 5 | 10 | 5 |  |  | Russian Thistle plant response rating ([2]; Postemergence, 250 g ai/ha): 40
CCc1cc(-c2ccc(C(F)(F)F)cc2)nn1Cc1ccnc(C(F)(F)F)c1 [Compound 110] |  |  |  |  |  |  |  | 50 | 90 | Plant response rating, Field Bindweed ([3]; Preemergence, 31 g ai/ha, scale 0 to 100): 30; Plant response rating, Field Bindweed ([3]; preemergence, 8 g ai/ha, scale 0 to 100, 100 is complete control): 0; Plant response rating, Field Bindweed [3, 8]: 10
CCCc1cc(C(=O)NC(C)C)nn1Cc1cc(C(F)(F)F)nn1C [Compound 201] |  |  |  |  |  |  |  | 20 | 75 | Plant response rating, Field Bindweed ([3]; Preemergence, 16 g ai/ha, scale 0 to 100): 15; Plant response rating, Field Bindweed [3, 9]: 100; Plant response rating, Field Bindweed [3, 8]: 0
CCc1cc(C(=O)NCC(F)(F)F)nn1Cc1ccnc(Br)c1 [Compound 224] |  |  |  |  |  |  |  | 65 | 90 | Plant response rating, Field Bindweed [3, 9]: 90
